# Source: PubChem BioAssay (NCI)
# Values joined by “and” are separate entries in the source; they are usually repeats but may differ in a detail not shown here. Equal values may be shown once.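 Exposure lasted 48 hours, with cells grown in 96-well plates and compounds tested at five concentrations. The concentration for 50% growth inhibition is given as GI50. TGI marks complete inhibition of growth.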 Where a SMILES comes first, the peptide text is derived from it. The star is where a group is joined. Cbz = O=C(OCc1ccccc1)*
# System: HS 578T breast
# Test: NCI tumour cell line growth inhibition, 48 h
row,SMILES,TGI
1,O=Cc1ccc(-c2ccc(-c3ccc(CO)s3)o2)s1,59.5 µM
2,CCOP(=O)(OCC)/C(C#N)=C/c1ccc(-c2cc(C(F)(F)F)cc(C(F)(F)F)c2)o1,> 100 µM
3,CC(=O)Nc1c(C(=N)C#N)ncn1CCO,> 100 µM
4,O=C(NCCN1CCOCC1)c1ccc(I)cc1,> 100 µM
5,CCC1CC(O)c2c(O)c3c(c(O)c2C1O)C(=O)c1cccc(O)c1C3=O (stereo unspecified) (tested in a mixture with another compound),0.331 µM
6,CCOC(=O)CCC1(CCC(=O)OCC)CCCCCCCCC(CCC(=O)OCC)(CCC(=O)OCC)C(=O)C1=O,> 100 µM
7,Cc1ccc2c(c1)CC1(Cc3cccc(C)c3C1=O)C2=O (stereo unspecified),> 100 µM
8,COCn1cnc2c(=O)nc(SC)n(-c3ccccc3)c21,> 100 µM

# System: HT29 colon
# Test: NCI tumour cell line growth inhibition, 48 h
SMILES,TGI,GI50
COc1ccc(CNc2nc(NC3CCCCC3)nc(NC3CCCCC3)n2)cc1,> 100 µM,
S=C1NCCN1C(=S)Nc1ccccc1,> 100 µM,
CCOC(=O)c1ccc(-c2ccc(Cl)cc2)[nH]1,> 10 µM,
CC1CC(Nc2ccc(Br)cc2)N(C(=O)c2ccc(Br)cc2)O1 (stereo unspecified),> 10 µM,
OC(C/C=N/N=C/CC(O)(C(F)(F)Cl)C(F)(F)Cl)(C(F)(F)Cl)C(F)(F)Cl,> 10 µM,
COc1cc2c(cc1O)NC(=O)[C@@H]1CCCN1C2=O,> 100 µM,
COc1ccc2nc(-c3ccccc3)c(=O)[nH]c2c1,> 100 µM,
O=C1C=C(Nc2ccc(S(=O)(=O)Nc3nccs3)cc2)c2ccccc2C1=O,39.3 µM,
C=CC1(CC[C@]2(c3ccc(OC)c(OC)c3)C=[N+]([O-])O[C@H](O[C@@H]3CCCC[C@H]3C(C)(C)c3ccccc3)C2)OCC(C)(C)CO1,28.2 µM,
Oc1c(Br)ccc2cccnc12,> 35.8 µM,
O=c1[nH]c2nc3ccccc3c(=O)n2/c1=C/c1cccs1,> 100 µM,
Cc1cc(C)nc(NC(P(=O)(O)O)P(=O)(O)O)n1,> 100 µM,
O=C1c2c(Br)sc(Br)c2C(=O)C1(O)O,> 100 µM,
O=C1CCSCCC(=O)Nc2ccccc2N1,> 100 µM,
COc1ccc(N2C(=O)C(=O)N(c3ccc(N=Nc4ccccc4)cc3)C2=S)cc1,37.1 µM,
CC(=O)SC(C[N+](=O)[O-])c1ccc2c(c1)OCO2 (stereo unspecified),5.56 µM,
Cc1ccc(CSC(N)=Nc2ccccc2)cc1C,40.1 µM,
C=C1CCCCCCCCC/C=C/1SCCCSC,> 100 µM,
COc1cc(Nc2nc3cc(C(F)(F)F)ccc3nc2C(=O)O)cc(OC)c1OC,> 100 µM,
CCOc1cc(NC(C)=O)ccc1C(=O)NNS(=O)(=O)c1ccc(NC(C)=O)cc1,> 100 µM,
NCCCN(CCCN)CCc1cn(C(=O)c2ccccc2)cn1,29.5 µM,

SMILES,TGI,GI50
COc1cccc(-c2nc(-c3cnccn3)n(C/C=C/c3ccccc3)n2)c1,> 10 µM,
CC1(C)O[C@H]2OC(CO)C(N=[N+]=[N-])[C@H]2O1 (stereo partly specified),> 100 µM,
Cc1[nH]n(-c2nc(O)c(-c3ccccc3)c(=O)[nH]2)c(=O)c1CCO,> 100 µM,
C=C1CC[C@H]2C(=O)OC(c3ccoc3)C[C@]2(C)C/C=C\C=C/1C(=O)OC (stereo partly specified),> 25 µM,
CC(NC(=O)Cc1ccccc1)NC(=O)C(C)C(=O)NCc1ccccc1 (stereo unspecified),> 100 µM,
CCOC(=O)CCC(NC(=O)C(Cc1ccccc1)NC(=O)OCc1ccccc1)C(=O)OCC (stereo not drawn) (Cbz-Phe-Glu(OEt)-OEt; configuration not given here),42.1 µM,
CCCCC1Cc2cc(O)ccc2-c2nc3cc(O)ccc3n21 (stereo unspecified) (tested in a mixture with another compound),31.9 µM,
COC(=O)N[C@H](C(=O)NC(OCc1ccccc1)C1COC(C)(C)O1)C(C)O[Si](C)(C)C(C)(C)C (stereo partly specified),> 100 µM,
CC(=O)c1ccc2c(c1)C(=O)c1sc(C(C)=O)cc1C2=O,2.82 µM and 9.47 µM,2.71 µM
O=Cc1ccc(-c2ccc(-c3ccc(CO)s3)o2)s1,> 53.2 µM,
CCOP(=O)(OCC)/C(C#N)=C/c1ccc(-c2cc(C(F)(F)F)cc(C(F)(F)F)c2)o1,21.9 µM,
CC(=O)Nc1c(C(=N)C#N)ncn1CCO,> 100 µM,
CN1CCN(/C(N)=C(\C#N)C(=O)Nc2ccc(Cl)cc2)CC1,> 100 µM,
O=C(NCCN1CCOCC1)c1ccc(I)cc1,> 100 µM,
CN1CCCOC(c2ccc(Cl)cc2)O1 (stereo unspecified),> 100 µM,
CCC1CC(O)c2c(O)c3c(c(O)c2C1O)C(=O)c1cccc(O)c1C3=O (stereo unspecified) (tested in a mixture with another compound),0.181 µM and 0.202 µM,
COc1ccc(/C(Cl)=C(\C#N)c2ccc(OC)c(OC)c2)cc1OC,> 100 µM,
CCOC(=O)CCC1(CCC(=O)OCC)CCCCCCCCC(CCC(=O)OCC)(CCC(=O)OCC)C(=O)C1=O,> 100 µM,
Cc1ccc2c(c1)CC1(Cc3cccc(C)c3C1=O)C2=O (stereo unspecified),> 100 µM,
O=c1[nH]nc(Cc2ccc(Cl)cc2)n1/N=C/c1cccs1,40.2 µM,
COCn1cnc2c(=O)nc(SC)n(-c3ccccc3)c21,> 100 µM,

# System: KM12 colon
# Test: NCI tumour cell line growth inhibition, 48 h
SMILES,TGI,GI50
COc1ccc(CNc2nc(NC3CCCCC3)nc(NC3CCCCC3)n2)cc1,3.84 µM,
S=C1NCCN1C(=S)Nc1ccccc1,> 100 µM,
CCOC(=O)c1ccc(-c2ccc(Cl)cc2)[nH]1,> 10 µM,
OC(C/C=N/N=C/CC(O)(C(F)(F)Cl)C(F)(F)Cl)(C(F)(F)Cl)C(F)(F)Cl,> 10 µM,
COc1cc2c(cc1O)NC(=O)[C@@H]1CCCN1C2=O,> 100 µM,
O=C1C=C(Nc2ccc(S(=O)(=O)Nc3nccs3)cc2)c2ccccc2C1=O,37.7 µM,
C=CC1(CC[C@]2(c3ccc(OC)c(OC)c3)C=[N+]([O-])O[C@H](O[C@@H]3CCCC[C@H]3C(C)(C)c3ccccc3)C2)OCC(C)(C)CO1,41.4 µM,
Oc1c(Br)ccc2cccnc12,> 100 µM,
O=c1[nH]c2nc3ccccc3c(=O)n2/c1=C/c1cccs1,> 100 µM,
Cc1cc(C)nc(NC(P(=O)(O)O)P(=O)(O)O)n1,> 100 µM,
O=C1c2c(Br)sc(Br)c2C(=O)C1(O)O,> 100 µM,
O=C1CCSCCC(=O)Nc2ccccc2N1,> 100 µM,
COc1ccc(N2C(=O)C(=O)N(c3ccc(N=Nc4ccccc4)cc3)C2=S)cc1,32.9 µM,
CC(=O)SC(C[N+](=O)[O-])c1ccc2c(c1)OCO2 (stereo unspecified),12.7 µM,
Cc1ccc(CSC(N)=Nc2ccccc2)cc1C,39.7 µM,
C=C1CCCCCCCCC/C=C/1SCCCSC,> 100 µM,
COc1cc(Nc2nc3cc(C(F)(F)F)ccc3nc2C(=O)O)cc(OC)c1OC,> 100 µM,
CCOc1cc(NC(C)=O)ccc1C(=O)NNS(=O)(=O)c1ccc(NC(C)=O)cc1,> 100 µM,

SMILES,TGI,GI50
NCCCN(CCCN)CCc1cn(C(=O)c2ccccc2)cn1,22.2 µM,
COc1cccc(-c2nc(-c3cnccn3)n(C/C=C/c3ccccc3)n2)c1,> 10 µM,
CC1(C)O[C@H]2OC(CO)C(N=[N+]=[N-])[C@H]2O1 (stereo partly specified),> 100 µM,
Cc1[nH]n(-c2nc(O)c(-c3ccccc3)c(=O)[nH]2)c(=O)c1CCO,> 100 µM,
C=C1CC[C@H]2C(=O)OC(c3ccoc3)C[C@]2(C)C/C=C\C=C/1C(=O)OC (stereo partly specified),> 25 µM,
CC(NC(=O)Cc1ccccc1)NC(=O)C(C)C(=O)NCc1ccccc1 (stereo unspecified),> 100 µM,
CCOC(=O)CCC(NC(=O)C(Cc1ccccc1)NC(=O)OCc1ccccc1)C(=O)OCC (stereo not drawn) (Cbz-Phe-Glu(OEt)-OEt; configuration not given here),32.6 µM,
CCCCC1Cc2cc(O)ccc2-c2nc3cc(O)ccc3n21 (stereo unspecified) (tested in a mixture with another compound),75.1 µM,
CC(=O)c1ccc2c(c1)C(=O)c1sc(C(C)=O)cc1C2=O,2.34 µM and 1.48 µM,0.313 µM
O=Cc1ccc(-c2ccc(-c3ccc(CO)s3)o2)s1,> 100 µM,
CC(=O)Nc1c(C(=N)C#N)ncn1CCO,> 100 µM,
CN1CCN(/C(N)=C(\C#N)C(=O)Nc2ccc(Cl)cc2)CC1,> 100 µM,
CN1CCCOC(c2ccc(Cl)cc2)O1 (stereo unspecified),> 100 µM,
CCC1CC(O)c2c(O)c3c(c(O)c2C1O)C(=O)c1cccc(O)c1C3=O (stereo unspecified) (tested in a mixture with another compound),0.147 µM and 0.0175 µM,
CCOC(=O)CCC1(CCC(=O)OCC)CCCCCCCCC(CCC(=O)OCC)(CCC(=O)OCC)C(=O)C1=O,> 100 µM,
O=c1[nH]nc(Cc2ccc(Cl)cc2)n1/N=C/c1cccs1,> 100 µM,
COCn1cnc2c(=O)nc(SC)n(-c3ccccc3)c21,> 100 µM,

# System: OVCAR-5 ovarian
# Test: NCI tumour cell line growth inhibition, 48 h
row,SMILES,TGI
1,COc1ccc(CNc2nc(NC3CCCCC3)nc(NC3CCCCC3)n2)cc1,> 100 µM
2,S=C1NCCN1C(=S)Nc1ccccc1,> 100 µM
3,CCOC(=O)c1ccc(-c2ccc(Cl)cc2)[nH]1,> 10 µM
4,CC1CC(Nc2ccc(Br)cc2)N(C(=O)c2ccc(Br)cc2)O1 (stereo unspecified),> 10 µM
5,COc1cc2c(cc1O)NC(=O)[C@@H]1CCCN1C2=O,> 100 µM
6,COc1ccc2nc(-c3ccccc3)c(=O)[nH]c2c1,> 100 µM
7,O=C1C=C(Nc2ccc(S(=O)(=O)Nc3nccs3)cc2)c2ccccc2C1=O,43.9 µM
8,C=CC1(CC[C@]2(c3ccc(OC)c(OC)c3)C=[N+]([O-])O[C@H](O[C@@H]3CCCC[C@H]3C(C)(C)c3ccccc3)C2)OCC(C)(C)CO1,39 µM
9,Oc1c(Br)ccc2cccnc12,> 100 µM
10,O=c1[nH]c2nc3ccccc3c(=O)n2/c1=C/c1cccs1,> 100 µM
11,Cc1cc(C)nc(NC(P(=O)(O)O)P(=O)(O)O)n1,> 100 µM
12,O=C1c2c(Br)sc(Br)c2C(=O)C1(O)O,50.3 µM
13,O=C1CCSCCC(=O)Nc2ccccc2N1,> 100 µM
14,COc1ccc(N2C(=O)C(=O)N(c3ccc(N=Nc4ccccc4)cc3)C2=S)cc1,44.6 µM
15,CC(=O)SC(C[N+](=O)[O-])c1ccc2c(c1)OCO2 (stereo unspecified),16 µM
16,Cc1ccc(CSC(N)=Nc2ccccc2)cc1C,56.4 µM
17,C=C1CCCCCCCCC/C=C/1SCCCSC,> 100 µM
18,COc1cc(Nc2nc3cc(C(F)(F)F)ccc3nc2C(=O)O)cc(OC)c1OC,> 100 µM
19,CCOc1cc(NC(C)=O)ccc1C(=O)NNS(=O)(=O)c1ccc(NC(C)=O)cc1,> 100 µM
